Marks after values point to notes of the source that are not given here.
What was measured:
[1] = Human liver microsomal stability assay; assay type: in vitro ADME; settings: human, microsomes
Description: (§1) Further examples of useful assays include metabolic stability assays, such as but not limited to e.g., liver microsomal clearance assays which provide measurement such as, but not limited to e.g., liver microsomal clearance half-life (t1/2), liver microsomal intrinsic clearance (CLint), and the like. Such measurements are useful in assessing various characteristics of a subject compound, such as e.g., the availability of an intact compound to provide a pharmacological effect. A compound having a longer microsomal clearance half-life (t1/2), e.g., than a reference compound, will provide better exposure of the intact compound and greater availability to produce the relevant pharmacological effect. A compound having a less microsomal clearance, e.g., as measured by liver microsomal intrinsic clearance (CLint), will similarly result in greater exposure of the intact compound available for an increase in the relevant pharmacological effect, e.g., as compared to that of a reference compound with a higher liver microsomal intrinsic clearance (CLint). Other useful assays include in vitro hepatocyte metabolic stability assays.
(§2) Such assessments included human and mouse liver microsomal stability assays as well as 6-hour mouse PK studies.

[2] = Mouse 6-hour PK study; settings: mouse, in vivo
Description: Useful such assays include, but are not limited to e.g., those measurements made in PK studies, such as rodent and non-human primate PK studies, including e.g., mouse (such as mouse 6-hour PK studies), rat PK studies, cynomolgus or rhesus PK studies, or the like. Useful measurements obtained in such PK studies include but are not limited to e.g., maximum concentration (Cmax) reflecting the “peak” of a drug observed after its administration that can reflect not only the rate but also the extent of absorption, area under the curve (AUC) representing the area under the plot of tissue (e.g., plasma) concentration against time after drug administration which is of particular use in estimating bioavailability of drugs and drug total clearance, half-life (t1/2) or the period of time required for the concentration or amount of drug to be reduced to exactly one-half of a given concentration or amount that indicates the persistence of the drug in its volume of distribution, and the like.
as §2

[3] = Mouse liver microsomal stability assay; assay type: in vitro ADME; settings: mouse, microsomes
Description: as §1, §2

[4] = system: mouse model of turpentine oil (TO)-induced anemia of inflammation; experiment: Turpentine oil induced anemia of inflammation; assay type: in vivo; settings: PO, hinokitiol as comparator in the respective studies
Experimental: Assay 3: Turpentine Oil Induced Anemia of Inflammation This is a model of anemia of inflammation by turpentine oil injection in combination with phlebotomy. Conditioning: Mice receive 3 doses of turpentine oil subcutaneously within 2 weeks. Mice are anesthetized and then administered 0.1 mL/20 g body weight of turpentine oil (TO) via subcutaneous injection in the scapular fat area using syringe and 27 G needle on Day 1, 7, and 14. On day 14, after the final injection of turpentine oil, a controlled 10% hemorrhage (approximately 200 uL) is accomplished via anesthetized orbital sinus bleed to increase the magnitude of anemia. The bleeding uses an orbital blood sampling technique, 200 uL capillary bleeding device (essentially a vacutainer tube with a glass capillary tube attached). Clean gauze lightly pre-soaked with sterile saline is held over the eye immediately following hemorrhage to promote hemostasis. Treatment: On day 15, 16 hours post last dose of turpentine oil, sham group and TO plus bleeding group are terminated. These two groups are used as part of control. On day 15, vehicle group and compound treatment groups receive proper vehicle or compounds at a specified dose accordingly, treatments can be oral once a day or oral twice a day. The treatment continues for 7 days, and then is terminated on day 21. On day 21, 3 hours post last treatment of test articles, the vehicle and treatment group are terminated. […] Depth of anesthesia is monitored by toe pinch method. […] Data analysis: The iron mobilization impact of compounds is assessed based on the serum iron level, transferrin saturation and TIBC; the ability of test article to restore normal iron homeostasis and metabolism, and subsequent rescue of anemia, is assessed by comparing the hemoglobin and hematocrit levels of test article treated groups with vehicle treated group. Test articles were evaluated in the described mouse model of turpentine oil (TO)-induced anemia of inflammation (A of I). […]

| SMILES | clearance half-life (t1/2) and intrinsic clearance (CLint) as compared to hinokitiol [1] | half-life [1] [h] | microsomal CLint [1] [µL/min/mg] | AUC(0-t) [2] [µg·h/mL] | Cmax [2] [µg/mL] | half-life [2] [h] | mouse 6-hour PK properties as compared to hinokitiol [2] | clearance half-life (t1/2) and intrinsic clearance (CLint) as compared to hinokitiol [3] | half-life [3] [h] | microsomal CLint [3] [µL/min/mg] | levels of Hgb compared with hinokitiol [4] | Human CLint [1] | Human t1/2 [1] | Mouse CLint [3] | Mouse t1/2 [3] |
| --- | --- | --- | --- | --- | --- | --- | --- | --- | --- | --- | --- | --- | --- | --- | --- |
| O=c1ccccc([C@H]2CCCO2)c1O (single isomer, unassigned) [Ex. 41] | longer clearance half-life (t1/2) and lower intrinsic clearance (CLint), or both as compared to hinokitiol | 0.417 to 0.833 | 25 to 50 | 0.5 to 1.5 | 1.5 to 5 | < 1.25 | one or more improved mouse 6-hour PK properties as compared to hinokitiol | longer clearance half-life (t1/2) and lower intrinsic clearance (CLint), or both as compared to hinokitiol | 0.417 to 0.833 | 25 to 50 |  |  |  |  |  |
| O=c1ccccc([C@@H]2CCCO2)c1O (single isomer, unassigned) [Ex. 42] | longer clearance half-life (t1/2) and lower intrinsic clearance (CLint), or both as compared to hinokitiol | 0.833 to 1.67 | < 25 | 0.5 to 1.5 | 1.5 to 5 | < 1.25 | one or more improved mouse 6-hour PK properties as compared to hinokitiol | longer clearance half-life (t1/2) and lower intrinsic clearance (CLint), or both as compared to hinokitiol | 0.417 to 0.833 | 25 to 50 | comparable or higher levels of Hgb than hinokitiol |  |  |  |  |
| CC(C)c1ccc(F)c(=O)c(O)c1 [Ex. 1, 7-fluoro-2-hydroxy-4-isopropylcyclohepta-2,4,6-trien-1-one] | longer clearance half-life (t1/2) and lower intrinsic clearance (CLint), or both as compared to hinokitiol | 0.417 to 0.833 | 25 to 50 | 5 to 20 | 5 to 20 | 1.25 to 4.99 | one or more improved mouse 6-hour PK properties as compared to hinokitiol | longer clearance half-life (t1/2) and lower intrinsic clearance (CLint), or both as compared to hinokitiol | > 2.5 | < 25 | comparable or higher levels of Hgb than hinokitiol |  |  |  |  |
| CC(C)c1cccc(=O)c(O)c1F [Ex. 2, 3-fluoro-2-hydroxy-4-isopropylcyclohepta-2,4,6-trien-1-one] | longer clearance half-life (t1/2) and lower intrinsic clearance (CLint), or both as compared to hinokitiol | > 2.5 | < 25 | 5 to 20 | 5 to 20 | 1.25 to 4.99 | one or more improved mouse 6-hour PK properties as compared to hinokitiol | longer clearance half-life (t1/2) and lower intrinsic clearance (CLint), or both as compared to hinokitiol | > 2.5 | < 25 |  |  |  |  |  |
| CC(C)c1cccc(F)c(=O)c1O [Ex. 4, 7-fluoro-2-hydroxy-3-isopropylcyclohepta-2,4,6-trien-1-one] | longer clearance half-life (t1/2) and lower intrinsic clearance (CLint), or both as compared to hinokitiol | 0.417 to 0.833 | > 50 | > 20 | 5 to 20 | 1.25 to 4.99 | one or more improved mouse 6-hour PK properties as compared to hinokitiol | longer clearance half-life (t1/2) and lower intrinsic clearance (CLint), or both as compared to hinokitiol | 0.417 to 0.833 | 25 to 50 |  |  |  |  |  |
| O=c1ccc(OC2COC2)ccc1O [Ex. 12, 2-hydroxy-5-(oxetan-3-yloxy)cyclohepta-2,4,6-trien-1-one] | longer clearance half-life (t1/2) and lower intrinsic clearance (CLint), or both as compared to hinokitiol |  |  | < 0.499 | 0.5 to 1.5 | 1.25 to 4.99 | one or more improved mouse 6-hour PK properties as compared to hinokitiol | longer clearance half-life (t1/2) and lower intrinsic clearance (CLint), or both as compared to hinokitiol |  |  |  | 0.00* μL/min/mg protein | ∞* | 0.00* μL/min/mg protein | ∞* |
| Cc1cccc(F)c(=O)c1O [Ex. 32, 7-fluoro-2-hydroxy-3-methylcyclohepta-2,4,6-trien-1-one] | longer clearance half-life (t1/2) and lower intrinsic clearance (CLint), or both as compared to hinokitiol | > 2.5 | < 25 | > 20 | 5 to 20 | 1.25 to 4.99 | one or more improved mouse 6-hour PK properties as compared to hinokitiol | longer clearance half-life (t1/2) and lower intrinsic clearance (CLint), or both as compared to hinokitiol | > 2.5 | < 25 | comparable or higher levels of Hgb than hinokitiol |  |  |  |  |
| O=c1c(F)cccc(C2CCOCC2)c1O [Ex. 36, 7-fluoro-2-hydroxy-3-(tetrahydro-2H-pyran-4-yl)cyclohepta-2,4,6-trien-1-one] | longer clearance half-life (t1/2) and lower intrinsic clearance (CLint), or both as compared to hinokitiol |  |  | > 20 | > 20 | 1.25 to 4.99 | one or more improved mouse 6-hour PK properties as compared to hinokitiol | longer clearance half-life (t1/2) and lower intrinsic clearance (CLint), or both as compared to hinokitiol | > 2.5 | < 25 |  | 0.00* μL/min/mg protein | ∞* |  |  |
| O=c1ccccc(OC2CCC2)c1O [Ex. 56, 3-cyclobutoxy-2-hydroxycyclohepta-2,4,6-trien-1-one] | longer clearance half-life (t1/2) and lower intrinsic clearance (CLint), or both as compared to hinokitiol | 1.67 to 2.5 | < 25 | 1.5 to 5 | 1.5 to 5 | < 1.25 | one or more improved mouse 6-hour PK properties as compared to hinokitiol | longer clearance half-life (t1/2) and lower intrinsic clearance (CLint), or both as compared to hinokitiol | 0.417 to 0.833 | 25 to 50 |  |  |  |  |  |

Source: patent US20230406803A1, “TROPOLONE DERIVATIVES AND TAUTOMERS THEREOF FOR IRON REGULATION IN ANIMALS” (Kinesid Therapeutics, Inc, priority 2020, published 2023)
